# Biological target: human PDE4B1 (Homo sapiens (Human), UniProt Q07343)
# Assay: cAMP HTRF assay to determine the activity of hPDE4B1
# Format: biochemical
# Settings: IC50 inhibition of PDE4B; human recombinant PDE4B1, cAMP HTRF assay
# Method: Biological Testing cAMP HTRF® Assay to Determine the Activity of hPDE4B1
# The inhibiting effect of the compounds on the enzyme activity of human PDE4B1 was measured by the quantification of 5′-adenosine monophosphate (5′-AMP), which is formed from 3′,5′-cyclic adenosine monophosphate (cAMP). Human recombinant enzyme, expressed in Sf9 cells, and the HTRF (homogeneous time-resolved fluorescence) detection method were used in the assay.
# The test compound or water (control) was mixed with the human recombinant PDE4B1 enzyme (4.8 U) in a buffer consisting of 44.4 mM tris-HCl, 5.28 mM MgCl2, 2.64 mM DTT and 0.044% Tween 20 (pH 7.8). After adding the cAMP enzyme substrate (final concentration 40 nM), the mixture was incubated for 30 minutes at room temperature. Then a fluorescence acceptor (Dye2 marked with cAMP), a fluorescence donor (anti-cAMP antibody marked with a europium cryptate) and the non-specific phosphodiesterase inhibitor IBMX (3-isobutyl-1-methylxanthine; final concentration 1 mM) were added. After 60 min the fluorescence transfer, which correlates with the amount of remaining cAMP, was measured with a microplate reader (Rubystar, BMG) at λex=337 nm, λem=620 nm and λem=665 nm. The enzyme activity was calculated from the quotient formed from the measured signal at 665 nm and that at 620 nm. The result was expressed as the percentage inhibition of enzyme activity of the control (without PDE4 inhibitor). The enzyme was omitted for measurement of the basal control.
# [N. Saldou et al., Comparison of recombinant human PDE4 isoforms: interaction with substrate and inhibitors, Cell. Signal. Vol. 10, No. 6, 427-440, 1998]. Several compounds according to the invention are tested in the above-described assay.
# Sequence of human PDE4B1 (Q07343 whole entry): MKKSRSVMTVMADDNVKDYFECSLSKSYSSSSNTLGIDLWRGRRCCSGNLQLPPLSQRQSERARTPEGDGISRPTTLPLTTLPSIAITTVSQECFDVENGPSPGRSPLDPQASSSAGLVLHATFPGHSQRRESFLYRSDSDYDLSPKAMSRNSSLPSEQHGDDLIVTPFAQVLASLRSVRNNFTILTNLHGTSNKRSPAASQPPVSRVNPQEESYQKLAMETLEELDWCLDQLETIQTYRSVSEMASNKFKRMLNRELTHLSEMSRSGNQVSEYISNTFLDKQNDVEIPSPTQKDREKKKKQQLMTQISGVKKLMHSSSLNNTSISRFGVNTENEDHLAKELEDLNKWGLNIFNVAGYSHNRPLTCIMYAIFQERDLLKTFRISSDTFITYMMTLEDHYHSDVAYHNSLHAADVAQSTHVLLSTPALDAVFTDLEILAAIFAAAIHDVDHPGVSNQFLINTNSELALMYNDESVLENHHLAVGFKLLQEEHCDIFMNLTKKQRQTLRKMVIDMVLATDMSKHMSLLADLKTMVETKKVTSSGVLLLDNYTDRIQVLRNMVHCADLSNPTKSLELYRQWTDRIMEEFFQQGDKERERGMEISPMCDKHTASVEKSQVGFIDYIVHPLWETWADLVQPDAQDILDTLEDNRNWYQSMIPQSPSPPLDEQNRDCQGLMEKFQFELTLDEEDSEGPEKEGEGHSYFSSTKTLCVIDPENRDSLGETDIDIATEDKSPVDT
row,IC50,Compound
1,< 0.1 µM,"1-[5-(3-Carbamoyl-phenyl)-pyrimidin-2-yl]-N-(2-hydroxy-ethyl)-N-methyl-spiro[1,2-dihydro-indole-3,1′-cyclopropane]-6-carboxylic acid amide [Compound 198]"
2,< 0.1 µM,"1-[5-(3-Cyano-phenyl)-pyrimidin-2-yl]-N-(2-hydroxy-ethyl)-N-methyl-spiro[1,2-dihydro-indole-3,1′-cyclopropane]-6-carboxylic acid amide [Compound 194]"
3,0.1 to 1 µM,"4-[1-(5-Phenyl-pyrimidin-2-yl)-spiro[1,2-dihydro-indole-3,1′-cyclopropane]-6-carbonyl]-piperazine-2,6-dione [Compound 202]"
4,< 0.1 µM,"4-[1-[5-(3-Fluorophenyl)-pyrimidin-2-yl]-spiro[1,2-dihydro-indole-3,1′-cyclopropane]-6-carbonyl]-piperazin-2-one [Compound 188]"
5,< 0.1 µM,"4-[1-[5-(3-Methoxyphenyl)-pyrimidin-2-yl]-spiro[1,2-dihydro-indole-3,1′-cyclopropane]-6-carbonyl]-piperazin-2-one [Compound 189]"
6,< 0.1 µM,"O=C(c1ccc2c(c1)N(c1ncc(-c3ccccc3F)cn1)CC21CC1)N1CCOCC1 [Compound 1, [1-[5-(2-Fluorophenyl)-pyrimidin-2-yl]-spiro[1,2-dihydro-indole-3,1′-cyclopropane]-6-yl]-morpholin-4-yl-methanone]"
7,< 0.1 µM,"CN(C)C(=O)c1ccc2c(c1)N(c1ncc(-c3ccccc3F)cn1)CC21CC1 [Compound 2, 1-[5-(2-Fluorophenyl)-pyrimidin-2-yl]-N,N-dimethyl-spiro[1,2-dihydro-indole-3,1′-cyclopropane]-6-carboxylic acid amide]"
8,< 0.1 µM,"O=C1CN(C(=O)c2ccc3c(c2)N(c2ncc(-c4ccccc4F)cn2)CC32CC2)CCN1 [Compound 4, 4-[1-[5-(2-Fluorophenyl)-pyrimidin-2-yl]-spiro[1,2-dihydro-indole-3,1′-cyclopropane]-6-carbonyl]-piperazin-2-one]"
9,< 0.1 µM,"O=C(c1ccc2c(c1)N(c1ncc(-c3ccccc3F)cn1)CC21CC1)N1CCNCC1 [Compound 5, [1-[5-(2-Fluorophenyl)-pyrimidin-2-yl]-spiro[1,2-dihydro-indole-3,1′-cyclopropane]-6-yl]-piperazin-1-yl-methanone]"
10,0.1 to 1 µM,"O=C(c1ccc2c(c1)N(c1ncc(-c3ccccc3Cl)cn1)CC21CC1)N1CCOCC1 [Compound 6, [1-[5-(2-Chlorophenyl)-pyrimidin-2-yl]-spiro[1,2-dihydro-indole-3,1′-cyclopropane]-6-yl]-morpholin-4-yl-methanone]"
11,< 0.1 µM,"O=C(c1ccc2c(c1)N(c1ncc(-c3ccccc3)cn1)CC21CC1)N1CCOCC1 [Compound 7, Morpholin-4-yl-[1-(5-phenyl-pyrimidin-2-yl)-spiro[1,2-dihydro-indole-3,1′-cyclopropane]-6-yl]-methanone]"
12,< 0.1 µM,"O=C(c1ccc2c(c1)N(c1ncc(-c3ccc(F)cc3F)cn1)CC21CC1)N1CCOCC1 [Compound 8, [1-[5-(2,4-Difluoro-phenyl)-pyrimidin-2-yl]-spiro[1,2-dihydro-indole-3,1′-cyclopropane]-6-yl]-morpholin-4-yl-methanone]"
13,0.1 to 1 µM,"CC1(C)CN(c2ncc(-c3ccccc3F)cn2)c2cc(C(=O)N3CCOCC3)ccc21 [Compound 9, [1-[5-(2-Fluorophenyl)-pyrimidin-2-yl]-3,3-dimethyl-1,2-dihydro-indol-6-yl]-morpholin-4-yl-methanone]"
14,< 0.1 µM,"Cc1ccccc1-c1cnc(N2CC3(CC3)c3ccc(C(=O)N4CCOCC4)cc32)nc1 [Compound 12, Morpholin-4-yl-[1-(5-o-tolyl-pyrimidin-2-yl)-spiro[1,2-dihydro-indole-3,1′-cyclopropane]-6-yl]-methanone]"
15,< 0.1 µM,"O=C(c1ccc2c(c1)N(c1ncc(-c3cccc(F)c3F)cn1)CC21CC1)N1CCOCC1 [Compound 15, [1-[5-(2,3-Difluoro-phenyl)-pyrimidin-2-yl]-spiro[1,2-dihydro-indole-3,1′-cyclopropane]-6-yl]-morpholin-4-yl-methanone]"
16,< 0.1 µM,"COc1ccc(F)c(-c2cnc(N3CC4(CC4)c4ccc(C(=O)N5CCOCC5)cc43)nc2)c1 [Compound 16, [1-[5-(2-Fluoro-5-methoxy-phenyl)-pyrimidin-2-yl]-spiro[1,2-dihydro-indole-3,1′-cyclopropane]-6-yl]-morpholin-4-yl-methanone]"
17,< 0.1 µM,"COc1ccc(-c2cnc(N3CC4(CC4)c4ccc(C(=O)N5CCOCC5)cc43)nc2)c(F)c1 [Compound 17, [1-[5-(2-Fluoro-4-methoxy-phenyl)-pyrimidin-2-yl]-spiro[1,2-dihydro-indole-3,1′-cyclopropane]-6-yl]-morpholin-4-yl-methanone]"
18,0.1 to 1 µM,"N#Cc1ccccc1-c1cnc(N2CC3(CC3)c3ccc(C(=O)N4CCOCC4)cc32)nc1 [Compound 18, 2-[2-[6-(Morpholine-4-carbonyl)-spiro[1,2-dihydro-indole-3,1′-cyclopropane]-1-yl]-pyrimidin-5-yl]-benzonitrile]"
19,0.1 to 1 µM,"COc1cccc(F)c1-c1cnc(N2CC3(CC3)c3ccc(C(=O)N4CCOCC4)cc32)nc1 [Compound 19, [1-[5-(2-Fluoro-6-methoxy-phenyl)-pyrimidin-2-yl]-spiro[1,2-dihydro-indole-3,1′-cyclopropane]-6-yl]-morpholin-4-yl-methanone]"
20,0.1 to 1 µM,"N#Cc1cccc(F)c1-c1cnc(N2CC3(CC3)c3ccc(C(=O)N4CCOCC4)cc32)nc1 [Compound 20, 3-Fluoro-2-[2-[6-(morpholine-4-carbonyl)-spiro[1,2-dihydro-indole-3,1′-cyclopropane]-1-yl]-pyrimidin-5-yl]-benzonitrile]"
21,0.1 to 1 µM,"CN(C)C(=O)c1ccccc1-c1cnc(N2CC3(CC3)c3ccc(C(=O)N4CCOCC4)cc32)nc1 [Compound 21, N,N-Dimethyl-2-[2-[6-(morpholine-4-carbonyl)-spiro[1,2-dihydro-indole-3,1′-cyclopropane]-1-yl]-pyrimidin-5-yl]-benzamide]"
22,< 0.1 µM,"N#Cc1ccc(F)c(-c2cnc(N3CC4(CC4)c4ccc(C(=O)N5CCOCC5)cc43)nc2)c1 [Compound 22, 4-Fluoro-3-[2-[6-(morpholine-4-carbonyl)-spiro[1,2-dihydro-indole-3,1′-cyclopropane]-1-yl]-pyrimidin-5-yl]-benzonitrile]"
23,< 0.1 µM,"O=C(c1ccc2c(c1)N(c1ncc(-c3cc(C(F)(F)F)ccc3F)cn1)CC21CC1)N1CCOCC1 [Compound 23, [1-[5-[2-Fluoro-5-(trifluoromethyl)-phenyl]-pyrimidin-2-yl]-spiro[1,2-dihydro-indole-3,1′-cyclopropane]-6-yl]-morpholin-4-yl-methanone]"
24,1 to 10 µM,"O=C(c1ccc2c(c1)N(c1ncc(-c3c(F)cccc3C(F)(F)F)cn1)CC21CC1)N1CCOCC1 [Compound 24, [1-[5-[2-Fluoro-6-(trifluoromethyl)-phenyl]-pyrimidin-2-yl]-spiro[1,2-dihydro-indole-3,1′-cyclopropane]-6-yl]-morpholin-4-yl-methanone]"
25,0.1 to 1 µM,"NC(=O)c1ccccc1-c1cnc(N2CC3(CC3)c3ccc(C(=O)N4CCOCC4)cc32)nc1 [Compound 25, 2-[2-[6-(Morpholine-4-carbonyl)-spiro[1,2-dihydro-indole-3,1′-cyclopropane]-1-yl]-pyrimidin-5-yl]-benzamide]"
26,< 0.1 µM,"NC(=O)c1ccc(-c2cnc(N3CC4(CC4)c4ccc(C(=O)N5CCOCC5)cc43)nc2)c(F)c1 [Compound 26, 3-Fluoro-4-[2-[6-(morpholine-4-carbonyl]-spiro[1,2-dihydro-indole-3,1′-cyclopropane]-1-yl]-pyrimidin-5-yl]-benzamide]"
27,< 0.1 µM,"O=C(c1ccc2c(c1)N(c1ncc(-c3c(F)cccc3F)cn1)CC21CC1)N1CCOCC1 [Compound 27, [1-[5-(2,6-Difluoro-phenyl)-pyrimidin-2-yl]-spiro[1,2-dihydro-indole-3,1′-cyclopropane]-6-yl]-morpholin-4-yl-methanone]"
28,0.1 to 1 µM,"CS(=O)(=O)c1ccccc1-c1cnc(N2CC3(CC3)c3ccc(C(=O)N4CCOCC4)cc32)nc1 [Compound 28, [1-[5-(2-Methylsulfonyl-phenyl)-pyrimidin-2-yl]-spiro[1,2-dihydro-indole-3,1′-cyclopropane]-6-yl]-morpholin-4-yl-methanone]"
29,< 0.1 µM,"CS(=O)(=O)c1ccc(-c2cnc(N3CC4(CC4)c4ccc(C(=O)N5CCOCC5)cc43)nc2)c(F)c1 [Compound 29, [1-[5-(2-Fluoro-4-methylsulfonyl-phenyl)-pyrimidin-2-yl]-spiro[1,2-dihydro-indole-3,1′-cyclopropane]-6-yl]morpholin-4-yl-methanone]"

row,Compound,IC50
1,"1-[5-(3-Cyano-phenyl)-pyrimidin-2-yl]-N-(2-hydroxy-ethyl)-N-methyl-spiro[1,2-dihydro-indole-3,1′-cyclo-propane]-6-carboxylic acid amide [Compound 193]",< 0.1 µM
